Experiments:
Assay type in all cases: functional
[1] = test system: OVCAR-5; assay: Growth inhibition of human OVCAR-5 cells assessed as cell growth at 1 uM incubated for 48 hrs by sulforhodamine B assay relative to control; details: read-out: Activity
[2] = test system: OVCAR-4; assay: Growth inhibition of human OVCAR-4 cells assessed as cell growth at 0.1 uM incubated for 48 hrs by sulforhodamine B assay relative to control; details: read-out: Activity
[3] = test system: HCC 2998; assay: Growth inhibition of human HCC 2998 cells assessed as cell growth at 1 uM incubated for 48 hrs by sulforhodamine B assay relative to control; details: read-out: Activity
[4] = test system: CAKI-1; assay: Growth inhibition of human CAKI-1 cells incubated for 48 hrs by sulforhodamine B assay
[5] = test system: COLO 205; assay: Growth inhibition of human COLO 205 cells assessed as cell growth at 0.01 uM incubated for 48 hrs by sulforhodamine B assay relative to control; details: read-out: Activity
[6] = test system: HT-29; assay: Growth inhibition of human HT-29 cells assessed as cell growth at 100 uM incubated for 48 hrs by sulforhodamine B assay relative to control; details: read-out: Activity
[7] = test system: UO-31; assay: Growth inhibition of human UO-31 cells assessed as cell growth at 0.01 uM incubated for 48 hrs by sulforhodamine B assay relative to control; details: read-out: Activity
[8] = test system: UACC-257; assay: Growth inhibition of human UACC-257 cells assessed as cell growth at 0.1 uM incubated for 48 hrs by sulforhodamine B assay relative to control; details: read-out: Activity
[9] = test system: EKVX; assay: Growth inhibition of human EKVX cells assessed as cell growth at 1 uM incubated for 48 hrs by sulforhodamine B assay relative to control; details: read-out: Activity
[10] = test system: SK-MEL-28; assay: Growth inhibition of human SK-MEL-28 cells assessed as cell growth at 100 uM incubated for 48 hrs by sulforhodamine B assay relative to control; details: read-out: Activity
[11] = test system: HT-29; assay: Growth inhibition of human HT-29 cells assessed as cell growth at 0.1 uM incubated for 48 hrs by sulforhodamine B assay relative to control; details: read-out: Activity
[12] = test system: M14; assay: Growth inhibition of human M14 cells assessed as cell growth at 0.1 uM incubated for 48 hrs by sulforhodamine B assay relative to control; details: read-out: Activity
[13] = test system: SR; assay: Growth inhibition of human SR cells assessed as cell growth at 0.01 uM incubated for 48 hrs by sulforhodamine B assay relative to control; details: read-out: Activity
[14] = test system: UACC-257; assay: Growth inhibition of human UACC-257 cells incubated for 48 hrs by sulforhodamine B assay
[15] = test system: SK-MEL-2; assay: Growth inhibition of human SK-MEL-2 cells assessed as cell growth at 0.1 uM incubated for 48 hrs by sulforhodamine B assay relative to control; details: read-out: Activity
[16] = test system: OVCAR-4; assay: Growth inhibition of human OVCAR-4 cells assessed as cell growth at 1 uM incubated for 48 hrs by sulforhodamine B assay relative to control; details: read-out: Activity
[17] = test system: NCI-H522; assay: Growth inhibition of human NCI-H522 cells assessed as cell growth at 100 uM incubated for 48 hrs by sulforhodamine B assay relative to control; details: read-out: Activity
[18] = test system: NCI-H322M; assay: Growth inhibition of human NCI-H322M cells assessed as cell growth at 100 uM incubated for 48 hrs by sulforhodamine B assay relative to control; details: read-out: Activity
[19] = test system: OVCAR-3; assay: Growth inhibition of human OVCAR-3 cells assessed as cell growth at 100 uM incubated for 48 hrs by sulforhodamine B assay relative to control; details: read-out: Activity
[20] = test system: UO-31; assay: Growth inhibition of human UO-31 cells assessed as cell growth at 1 uM incubated for 48 hrs by sulforhodamine B assay relative to control; details: read-out: Activity
[21] = test system: LOX IMVI; assay: Growth inhibition of human LOX IMVI cells assessed as cell growth at 0.01 uM incubated for 48 hrs by sulforhodamine B assay relative to control; details: read-out: Activity
[22] = test system: BT-549; assay: Growth inhibition of human BT-549 cells assessed as cell growth at 0.1 uM incubated for 48 hrs by sulforhodamine B assay relative to control; details: read-out: Activity
[23] = test system: NCI-H23; assay: Growth inhibition of human NCI-H23 cells assessed as cell growth at 100 uM incubated for 48 hrs by sulforhodamine B assay relative to control; details: read-out: Activity
[24] = test system: CCRF-CEM; assay: Growth inhibition of human CCRF-CEM cells assessed as cell growth at 0.01 uM incubated for 48 hrs by sulforhodamine B assay relative to control; details: read-out: Activity
[25] = test system: MDA-MB-468; assay: Growth inhibition of human MDA-MB-468 cells assessed as cell growth at 100 uM incubated for 48 hrs by sulforhodamine B assay relative to control; details: read-out: Activity
[26] = test system: RXF 393; assay: Growth inhibition of human RXF 393 cells assessed as cell growth at 100 uM incubated for 48 hrs by sulforhodamine B assay relative to control; details: read-out: Activity
[27] = test system: A498; assay: Growth inhibition of human A498 cells assessed as cell growth at 1 uM incubated for 48 hrs by sulforhodamine B assay relative to control; details: read-out: Activity
[28] = test system: ACHN; assay: Growth inhibition of human ACHN cells assessed as cell growth at 0.01 uM incubated for 48 hrs by sulforhodamine B assay relative to control; details: read-out: Activity
[29] = test system: OVCAR-5; assay: Growth inhibition of human OVCAR-5 cells assessed as cell growth at 0.1 uM incubated for 48 hrs by sulforhodamine B assay relative to control; details: read-out: Activity
[30] = test system: SK-MEL-28; assay: Growth inhibition of human SK-MEL-28 cells incubated for 48 hrs by sulforhodamine B assay
[31] = test system: IGROV-1; assay: Growth inhibition of human IGROV-1 cells assessed as cell growth at 0.01 uM incubated for 48 hrs by sulforhodamine B assay relative to control; details: read-out: Activity
[32] = test system: OVCAR-5; assay: Growth inhibition of human OVCAR-5 cells assessed as cell growth at 0.01 uM incubated for 48 hrs by sulforhodamine B assay relative to control; details: read-out: Activity
[33] = test system: HCC 2998; assay: Growth inhibition of human HCC 2998 cells assessed as cell growth at 100 uM incubated for 48 hrs by sulforhodamine B assay relative to control; details: read-out: Activity
[34] = test system: U-251; assay: Growth inhibition of human U-251 cells assessed as cell growth at 1 uM incubated for 48 hrs by sulforhodamine B assay relative to control; details: read-out: Activity
[35] = test system: MDA-MB-231; assay: Growth inhibition of human MDA-MB-231 cells assessed as cell growth at 1 uM incubated for 48 hrs by sulforhodamine B assay relative to control; details: read-out: Activity
[36] = test system: SK-MEL-28; assay: Growth inhibition of human SK-MEL-28 cells assessed as cell growth at 0.01 uM incubated for 48 hrs by sulforhodamine B assay relative to control; details: read-out: Activity
[37] = test system: SNB-19; assay: Growth inhibition of human SNB-19 cells incubated for 48 hrs by sulforhodamine B assay
[38] = read-out: LC50 (the source's name)
[39] = read-out: pLC50 (the source's name) (converted)

## CC(=O)Nc1cc(CCl)cc(NC(=O)c2ccc(C(=O)Nc3cccc(NC(=O)CCCN(C)C)c3)cc2)c1
[1]
  growth at 1 µM: 83%
[2]
  growth at 0.1 µM: 94%
[3]
  growth at 1 µM: 96%
[4]; read-out: GI50
  GI50: > 100 µM
[4]; [38]
  CC50: > 100 µM
[4]; read-out: TGI
  TGI: > 100 µM
[4]; read-out: pGI50 (converted)
  GI50: > 100 µM
[4]; [39]
  CC50: > 100 µM
[4]; read-out: pTGI
  TGI: > 100 µM
[5]
  growth at 0.01 µM: 112%
[6]
  growth at 100 µM: 51%
[7]
  growth at 0.01 µM: 94%
[8]
  growth at 0.1 µM: 93%
[9]
  growth at 1 µM: 81%
[10]
  growth at 100 µM: 92%
[11]
  growth at 0.1 µM: 101%
[12]
  growth at 0.1 µM: 102%
[13]
  growth at 0.01 µM: 96%
[14]; read-out: GI50
  GI50: > 100 µM
[14]; read-out: LC50
  LC50: > 100 µM
[14]; read-out: TGI
  TGI: > 100 µM
[14]; read-out: pGI50 (converted)
  GI50: > 100 µM
[14]; read-out: pLC50 (converted)
  LC50: > 100 µM
[14]; read-out: pTGI
  TGI: > 100 µM
[15]
  growth at 0.1 µM: 111%
[16]
  growth at 1 µM: 91%
[17]
  growth at 100 µM: 83%
[18]
  growth at 100 µM: 103%
[19]
  growth at 100 µM: 105%
[20]
  growth at 1 µM: 97%
[21]
  growth at 0.01 µM: 96%
[22]
  growth at 0.1 µM: 103%
[23]
  growth at 100 µM: 79%
[24]
  growth at 0.01 µM: 107%
[25]
  growth at 100 µM: 51%
[26]
  growth at 100 µM: 96%
[27]
  growth at 1 µM: 73%
[28]
  growth at 0.01 µM: 105%
[29]
  growth at 0.1 µM: 88%
[30]; read-out: GI50
  GI50: > 100 µM
[30]; read-out: LC50
  LC50 (50% lethal concentration): > 100 µM
[30]; read-out: TGI
  TGI: > 100 µM
[30]; read-out: pGI50 (converted)
  GI50: > 100 µM
[30]; read-out: pLC50 (converted)
  LC50 (50% lethal concentration): > 100 µM
[30]; read-out: pTGI
  TGI: > 100 µM
[31]
  growth at 0.01 µM: 113%
[32]
  growth at 0.01 µM: 92%
[33]
  growth at 100 µM: 93%
[34]
  growth at 1 µM: 93%
[35]
  growth at 1 µM: 104%
[36]
  growth at 0.01 µM: 98%
[37]; read-out: GI50
  GI50: > 100 µM
[37]; [38]
  CC50: > 100 µM
[37]; read-out: TGI
  TGI: > 100 µM
[37]; read-out: pGI50 (converted)
  GI50: > 100 µM
[37]; [39]
  CC50: > 100 µM
[37]; read-out: pTGI
  TGI: > 100 µM

From ChEMBL document CHEMBL4715697, “Synthesis and biological activity of benzamide DNA minor groove binders” (2016)
